# Data from paper PMC6370745, “Positive Regulation of Spoilage Potential and Biofilm Formation in Shewanella baltica OS155 via Quorum Sensing System Composed of DKP and Orphan LuxRs” (Frontiers in Microbiology, 2019).
# Target: T1, LuxR01 (Shewanella baltica, UniProt A3CYS4)
# T1 construct: gene Sbal_0102
# T1 sequence (A3CYS4 1-175): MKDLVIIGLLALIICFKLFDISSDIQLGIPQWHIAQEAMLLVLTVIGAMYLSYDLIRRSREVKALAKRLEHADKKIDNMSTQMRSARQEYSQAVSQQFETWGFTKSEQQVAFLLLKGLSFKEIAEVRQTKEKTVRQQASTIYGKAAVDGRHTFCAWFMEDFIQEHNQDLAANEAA
# Experiment: FLAG bead pull-down from ligand mixture, UHPLC-MS/MS
# Type: binding
# Details: mixture of C4-HSL, C6-HSL, PL, LL and PP, 1 uM, PBS, 4 °C, 1 h; empty-vector control
smiles,measurement,value
"O=C1N[C@@H](Cc2ccccc2)C(=O)N2CCC[C@@H]12 [PP, cyclo-(L-Pro-L-Phe)]","FLAG bead pull-down from ligand mixture, UHPLC-MS/MS",PP was detected in LuxR01 and LuxR02 protein binding system
